≈ marks a conversion by molar mass, not a printed value. Read-outs that look alike come from different tables or passages of the source.
Tests used:
[1] = tested on: P. asaccharolyticus ATCC14963; experiment: MIC against anaerobic bacteria; type: cell-based; conditions: Peptoniphilus asaccharolyticus
P. anaerobius B-38 = experiment: MIC against anaerobic bacteria; type: cell-based; conditions: Peptostreptococcus anaerobius, B38
P. prevotii ATCC9321 = experiment: MIC against anaerobic bacteria; type: cell-based; conditions: Anaerococcus prevotii
P. micros VPI5464-1 = experiment: MIC against anaerobic bacteria; type: cell-based; conditions: Parvimonas micra, VPI54641
[2] = tested on: S. constellatus ATCC27823; experiment: MIC against anaerobic bacteria; type: cell-based; conditions: Streptococcus constellatus
E. lentum II-1 = experiment: MIC against anaerobic bacteria; type: cell-based; conditions: Eggerthella lenta, II1
E. limosum ATCC8486 = experiment: MIC against anaerobic bacteria; type: cell-based; conditions: Eubacterium limosum
E. aerofaciens ATCC25986 = experiment: MIC against anaerobic bacteria; type: cell-based; conditions: Collinsella aerofaciens
P. acens ATCC11827 = experiment: MIC against anaerobic bacteria; type: cell-based
B. adolescentis JCM1250 = experiment: MIC against anaerobic bacteria; type: cell-based; conditions: Bifidobacterium adolescentis; B. adolescentis JCM1250; read-out: MIC
B. bifidum JCM1122 = experiment: MIC against anaerobic bacteria; type: cell-based; conditions: Bifidobacterium bifidum; B. bifidum JCM1122; read-out: MIC
B. longum ATCC15707 = experiment: MIC against anaerobic bacteria; type: cell-based; conditions: Bifidobacterium longum, ATCC15707
L. plantarum JCM1100 = experiment: MIC against anaerobic bacteria; type: cell-based; conditions: Lactiplantibacillus plantarum; L. plantarum JCM1100; read-out: MIC
L. ruminis ATCC27780 = experiment: MIC against anaerobic bacteria; type: cell-based
C. perfringens SAKAI = experiment: microbe, parasite or virus in culture; type: cell-based; conditions: Clostridium perfringens
C. perfringens ATCC13124 = experiment: microbe, parasite or virus in culture; type: cell-based; conditions: Clostridium perfringens
C. difficile ATCC17857 = experiment: MIC against anaerobic bacteria; type: cell-based; conditions: Clostridioides difficile
B. fragilis GM7000 = experiment: MIC against anaerobic bacteria; type: cell-based; conditions: Bacteroides fragilis
B. fragilis ATCC25285 = experiment: MIC against anaerobic bacteria; type: cell-based; conditions: Bacteroides fragilis
[3] = tested on: B. thetaiotaomicron WAL3304; experiment: MIC against anaerobic bacteria; type: cell-based; conditions: Bacteroides thetaiotaomicron
B. vulgatus ATCC29327 = experiment: MIC against anaerobic bacteria; type: cell-based; conditions: Phocaeicola vulgatus
B. distasonis JU-11-1 = experiment: MIC against anaerobic bacteria; type: cell-based; conditions: Parabacteroides distasonis, JU111
B. ovatus 2505 = experiment: MIC against anaerobic bacteria; type: cell-based; conditions: Bacteroides ovatus
[4] = tested on: B. melaninogenicus GAI0413; experiment: MIC against anaerobic bacteria; type: cell-based; conditions: B. melaninogenicus GAI0413; read-out: MIC
F. varium ATCC8501 = experiment: MIC against anaerobic bacteria; type: cell-based; conditions: Fusobacterium varium
F. necrophorum ATCC25286 = experiment: MIC against anaerobic bacteria; type: cell-based; conditions: Fusobacterium necrophorum
F. nucleatum ATCC25586 = experiment: MIC against anaerobic bacteria; type: cell-based; conditions: Fusobacterium nucleatum
F. mortiferum ATCC9817 = experiment: MIC against anaerobic bacteria; type: cell-based; conditions: Fusobacterium mortiferum; F. mortiferum ATCC9817; read-out: MIC
anaerobic bacteria = experiment: antibacterial activity against anaerobic bacteria (summary); type: cell-based; conditions: in words
[5] = filter paper electrophoresis and bioautography (acidic property); type: physicochemical
From the text: Other physicochemical properties of PB-6042s in the form of sodium salt are listed below.

S. aureus FDA JC-1 = experiment: MIC against aerobic bacteria; conditions: Staphylococcus aureus, FDAJC1
S. aureus SR14(R) = experiment: MIC against aerobic bacteria; conditions: Staphylococcus aureus
S. pyogenes C-203 = experiment: MIC against aerobic bacteria; conditions: Streptococcus pyogenes, C203
S. pneumoniae TYPE 1 = experiment: MIC against aerobic bacteria; conditions: Streptococcus pneumoniae, TYPE1
E. coli NIHJ JC-2 = experiment: MIC against aerobic bacteria; conditions: Escherichia coli, NIHJJC2
K. pneumoniae SR1 = experiment: MIC against aerobic bacteria; conditions: Klebsiella pneumoniae
P. vulgaris CN-329 = experiment: MIC against aerobic bacteria; conditions: Proteus vulgaris, CN329
P. aeruginosa A25619 = experiment: MIC against aerobic bacteria; conditions: Pseudomonas aeruginosa
V. parvula ATCC10790 = experiment: MIC against anaerobic bacteria; type: cell-based; conditions: Veillonella parvula
[6] = antibacterial activity and acidic property of reduced PB-6042A: antibacterial activity; type: cell-based; conditions: after H2/PtO2 reduction
[7] = acidic property of reduced PB-6042A; conditions: after H2/PtO2 reduction

C=C1OC(=O)C(C(=O)CCCCCCCCCCC)=C1O [PB-6042C]
MIC ([1]; ATCC14963): 3.13 µg/mL (≈ 10.6 µM) | MIC (P. anaerobius B-38): 0.78 µg/mL (≈ 2.65 µM) | MIC (P. prevotii ATCC9321; ATCC9321): 3.13 µg/mL (≈ 10.6 µM) | MIC (P. micros VPI5464-1): 0.78 µg/mL (≈ 2.65 µM) | MIC [2]: 0.78 µg/mL (≈ 2.65 µM) | MIC (E. lentum II-1): 3.13 µg/mL (≈ 10.6 µM) | MIC (E. limosum ATCC8486; E. limosum ATCC8486, read-out: MIC): 1.56 µg/mL (≈ 5.3 µM) | MIC (E. aerofaciens ATCC25986; ATCC25986): 3.13 µg/mL (≈ 10.6 µM) | MIC (P. acens ATCC11827): 0.78 µg/mL (≈ 2.65 µM) | MIC (B. adolescentis JCM1250): 0.78 µg/mL (≈ 2.65 µM) | MIC (B. bifidum JCM1122): 6.25 µg/mL (≈ 21.2 µM) | MIC (B. longum ATCC15707): 3.13 µg/mL (≈ 10.6 µM) | MIC (L. plantarum JCM1100): 6.25 µg/mL (≈ 21.2 µM) | MIC (L. ruminis ATCC27780; L. ruminis ATCC27780, read-out: MIC): 1.56 µg/mL (≈ 5.3 µM) | MIC (C. perfringens SAKAI): 3.13 µg/mL (≈ 10.6 µM) | MIC (C. perfringens ATCC13124): 3.13 µg/mL (≈ 10.6 µM) | MIC (C. difficile ATCC17857): 0.78 µg/mL (≈ 2.65 µM) | MIC (B. fragilis GM7000; GM7000): 3.13 µg/mL (≈ 10.6 µM) | MIC (B. fragilis ATCC25285; B. fragilis ATCC25285, read-out: MIC): 1.56 µg/mL (≈ 5.3 µM) | MIC ([3]; WAL3304): 3.13 µg/mL (≈ 10.6 µM) | MIC (B. vulgatus ATCC29327; ATCC29327): 3.13 µg/mL (≈ 10.6 µM) | MIC (B. distasonis JU-11-1): 3.13 µg/mL (≈ 10.6 µM) | MIC (B. ovatus 2505; 2505): 3.13 µg/mL (≈ 10.6 µM) | MIC [4]: 6.25 µg/mL (≈ 21.2 µM) | MIC (F. varium ATCC8501): > 100 µg/mL | MIC (F. necrophorum ATCC25286): 12.5 µg/mL (≈ 42.5 µM) | MIC (F. nucleatum ATCC25586): 12.5 µg/mL (≈ 42.5 µM) | MIC (F. mortiferum ATCC9817): 25 µg/mL (≈ 84.9 µM) | growth inhibition of anaerobic bacteria (anaerobic bacteria): inhibit the growth of anaerobic bacteria, selectively | acidic property [5]: acidic substances | MIC (S. aureus FDA JC-1): > 100 µg/mL | MIC (S. aureus SR14(R)): > 100 µg/mL | MIC (S. pyogenes C-203): 12.5 µg/mL (≈ 42.5 µM) | MIC (S. pneumoniae TYPE 1): 12.5 µg/mL (≈ 42.5 µM) | MIC (E. coli NIHJ JC-2): > 100 µg/mL | MIC (K. pneumoniae SR1): > 100 µg/mL | MIC (P. vulgaris CN-329): > 100 µg/mL | MIC (P. aeruginosa A25619): > 100 µg/mL

C=C1OC(=O)C(C(=O)CCCC/C=C\CCCCCCC)=C1O [PB-6042D]
MIC ([1]; P. asaccharolyticus ATCC14963, read-out: MIC): 6.25 µg/mL (≈ 19.5 µM) | MIC (P. anaerobius B-38): 1.56 µg/mL (≈ 4.87 µM) | MIC (P. prevotii ATCC9321; P. prevotii ATCC9321, read-out: MIC): 6.25 µg/mL (≈ 19.5 µM) | MIC (P. micros VPI5464-1): 0.78 µg/mL (≈ 2.43 µM) | MIC [2]: 1.56 µg/mL (≈ 4.87 µM) | MIC (E. lentum II-1): 3.13 µg/mL (≈ 9.77 µM) | MIC (E. limosum ATCC8486; ATCC8486): 3.13 µg/mL (≈ 9.77 µM) | MIC (E. aerofaciens ATCC25986; E. aerofaciens ATCC25986, read-out: MIC): 6.25 µg/mL (≈ 19.5 µM) | MIC (P. acens ATCC11827): 1.56 µg/mL (≈ 4.87 µM) | MIC (B. adolescentis JCM1250): 6.25 µg/mL (≈ 19.5 µM) | MIC (B. bifidum JCM1122): 6.25 µg/mL (≈ 19.5 µM) | MIC (B. longum ATCC15707): 3.13 µg/mL (≈ 9.77 µM) | MIC (L. plantarum JCM1100): 6.25 µg/mL (≈ 19.5 µM) | MIC (L. ruminis ATCC27780): 3.13 µg/mL (≈ 9.77 µM) | MIC (C. perfringens SAKAI): 3.13 µg/mL (≈ 9.77 µM) | MIC (C. perfringens ATCC13124): 3.13 µg/mL (≈ 9.77 µM) | MIC (C. difficile ATCC17857): 1.56 µg/mL (≈ 4.87 µM) | MIC (V. parvula ATCC10790): > 100 µg/mL | MIC (B. fragilis GM7000; B. fragilis GM7000, read-out: MIC): 6.25 µg/mL (≈ 19.5 µM) | MIC (B. fragilis ATCC25285; ATCC25285): 3.13 µg/mL (≈ 9.77 µM) | MIC ([3]; B. thetaiotaomicron WAL3304, read-out: MIC): 6.25 µg/mL (≈ 19.5 µM) | MIC (B. vulgatus ATCC29327; B. vulgatus ATCC29327, read-out: MIC): 12.5 µg/mL (≈ 39 µM) | MIC (B. distasonis JU-11-1; B. distasonis JU-11-1, read-out: MIC): 12.5 µg/mL (≈ 39 µM) | MIC (B. ovatus 2505; B. ovatus 2505, read-out: MIC): 12.5 µg/mL (≈ 39 µM) | MIC [4]: 12.5 µg/mL (≈ 39 µM) | MIC (F. varium ATCC8501): > 100 µg/mL | MIC (F. nucleatum ATCC25586): 25 µg/mL (≈ 78 µM) | MIC (F. mortiferum ATCC9817): > 100 µg/mL | growth inhibition of anaerobic bacteria (anaerobic bacteria): inhibit the growth of anaerobic bacteria, selectively | acidic property [5]: acidic substances | MIC (S. aureus FDA JC-1): > 100 µg/mL | MIC (S. aureus SR14(R)): 12.5 µg/mL (≈ 39 µM) | MIC (S. pyogenes C-203): 12.5 µg/mL (≈ 39 µM) | MIC (S. pneumoniae TYPE 1): 12.5 µg/mL (≈ 39 µM) | MIC (E. coli NIHJ JC-2): > 100 µg/mL | MIC (K. pneumoniae SR1): > 100 µg/mL | MIC (P. vulgaris CN-329): > 100 µg/mL | MIC (P. aeruginosa A25619): > 100 µg/mL

CCCCCCCCCC(=O)C1=C(O)C(C)OC1=O (stereo not drawn) [reduced product]
antibacterial activity of reduced product [6]: maintained antibacterial activity | acidic property of reduced product [7]: maintained antibacterial activity and acidic property

Source: patent publication US5045458A, “Antibiotics PB-6042S” (Shionogi & Co., Ltd., priority 1988, dated 1991)
